The results in this text go back to patent publication US20050112079A1, “Depilatories and agents for external use” (KAO CORPORATION, priority 1999, published 2005).

Where no end group is shown, it is not given here.

Test [1] concerns growth-phase hair follicles. As to the kind of experiment: Growth-phase hair follicle inhibitory effects, number of hair shafts grown per unit area. The note with it: guinea pig dorsal, 1 μg intracutaneous, fifth day after the administration (FIG. 1). The class given is in vivo. The procedure:
Solutions (1 μg, each) of endothelin-1, endothelin-2 and endotherin-3 in aliquots of phosphate buffer solution (PBS), which contained 0.1% of bovine serum albumin (BSA), were intracutaneously administered (at 50 μL/site) to the dorsal parts of guinea pigs, respectively, from which hair had been cut off by a hair clipper. Three days after the administration, hair was again cut off by a hair clipper from the administered sites. Two days after the cutting, the numbers of hair shafts grown per unit area at the administered sites were counted.

The subject of test [2] is growth-phase hair follicle. Nature of the test: Structural changes of hair follicle structure, hematoxylin-eosin stained dorsal skin. The conditions noted are these: guinea pig, 0.3 μg intracutaneous. Type of test: in vivo. The procedure:
A solution of endothelin-1 (0.3 μg) in phosphate buffer solution (PBS), which contained […] of bovine serum albumin (BSA), was intracutaneously administered (at 50 μL/site) to the dorsal part of a guinea pig. After that, samples were collected day after day from the administered dorsal skin, and tissue samples were prepared by hematoxylin-eosin staining.

The test system of another test is regrowth of dorsal hair. As to the kind of experiment: Hair growth test in mice, application to depilated skin. The class given is in vivo, C3H/HeNCrj mouse. The note with it: mouse, 0.5 mg in 2.5 mL PEG 400/PEG 3350 (95/5), 25 μL/application once a day over 2 weeks; regrown hair area/depilated area×100. Here is the method:
Endothelin-1 (0.5 mg) was dissolved in a mixed solution (2.5 mL) of polyethylene glycol 400 (average molecular weight: 400) and polyethylene glycol 3350 (average molecular weight: 3,350) (mixing ratio: 95/5) to prepare a hair growth inhibitor. Dorsal hair of each 8-week old C3H/HeNCrj mouse was removed with a depilatory cream (over an area of 2×4 cm^2), and the hair growth inhibitor was applied to the depilated site once a day at a dose of 25 μL/application over 2 weeks. A group in which only the solvent was similarly applied was employed as a control group. To observe regrowth of hair, the above-described depilated site on day 14 after the depilation was photographed at a predetermined fixed magnification, and the percentage of a regrown hair area (regrown hair area/depilated area×100) was determined using an image analyzer.

Test [3] concerns hair at the dorsal part of a guinea pig. Nature of the test: Depilation inducing effects of endothelin, intracutaneous administration. Type of test: in vivo. The note with it: 0.3 μg intracutaneous (50 μL/site), 10 days after the administration. The procedure: A solution of endothelin-1 (0.3 μg) in phosphate buffer solution (PBS), which contained 0.1% of bovine serum albumin (BSA), was intracutaneously administered (at 50 μL/site) to the dorsal part of a guinea pig.

Test [4] deals with hair follicle organs in growth phase isolated from human scalp tissue. Nature of the test: Growth inhibitory effects on organ-cultured hair follicles. Type of test: cell-based. The procedure:
From a human scalp tissue, hair follicle organs in growth phase were surgically isolated under a stereomicroscope. Following a conventional procedure [Philpott M. P., et al., J. Cell Sci., 97, 463-471 (1990)], the isolated hair follicles were subjected to organ culture. Described specifically, endothelin-1 was added to William's E medium which contained L-glutamine (2 mM), hydrocortisone (10 ng/mL), insulin (10 μg/mL), sodium selenite (10 ng/mL) and transferrin (10 μg/mL).

For the compound `CC[C@H](C)[C@H](NC(=O)[C@H](CC(=O)O)NC(=O)[C@H](CC(C)C)NC(=O)[C@H](Cc1c[nH]cn1)NC(=O)[C@@H]1CSSC[C@H](N)C(=O)N[C@@H](CO)C(=O)N[C@H]2CSSC[C@H](NC(=O)[C@H](CCC(=O)O)NC(=O)[C@H](CCCCN)NC(=O)[C@H](CC(=O)O)NC(=O)[C@H](CCSC)NC(=O)[C@H](CC(C)C)NC(=O)[C@H](CO)NC(=O)[C@H](CO)NC2=O)C(=O)N[C@@H](C(C)C)C(=O)N[C@@H](Cc2ccc(O)cc2)C(=O)N[C@@H](Cc2ccccc2)C(=O)N1)C(=O)N[C@H](C(=O)N[C@@H](Cc1c[nH]c2ccccc12)C(=O)O)[C@@H](C)CC` [Endothelin-1, endothelin-1], in test [1], the “Number of hair shafts grown per unit area at the administered site” value is on record as “significant (p<0.01) decrease in the number of hair shafts”. In addition, the Hair follicle histology entry in test [2] (1st day after the administration (FIG. 2)) is reported as “regressed image of a growth-phase hair follicle”; in test [2] (3rd day after the administration (FIG. 2)), “image of a follicular tissue in transition phase”. For the same compound, the “Percentage of regrown hair area on day 14 after depilation” value in the test with regrowth of dorsal hair was 2.22 Percentage. For the same compound, the “Depilation at the administered site” value in test [3] was “hair shaft falling-off and formation of a marked depilation spot”. Also, the “Grown hair follicle length versus control group” value in test [4] (day 4 of incubation and the subsequent days (FIG. 3)) is “significant hair growth inhibitory effects”. The “Structural change of incubated hair follicles” value in test [4] (during the incubation period (FIG. 4)) is given as “structural change of the endothelin-treated, growth-phase hair follicles into those similar to resting-phase hair follicles”.

With “endothelin-2 (CSCSSWLDKECVYFCHLDIIW; ends and bridges not checked; cysteine pairing not given here; UniProt P20800 49-69, looked up) [isoform of endothelin, a peptide composed of 21 amino acid residues]”, the “Number of hair shafts grown per unit area at the administered site” value in test [1] was “significant (p<0.01) decrease in the number of hair shafts”.

For the compound “endothelin-3 (CTCFTYKDKECVYYCHLDIIW; ends and bridges not checked; cysteine pairing not given here; UniProt P14138 97-117, looked up) [endotherin-3, isoform of endothelin, a peptide composed of 21 amino acid residues]”, the “Number of hair shafts grown per unit area at the administered site” value in test [1] was “significant (p<0.01) decrease in the number of hair shafts”.
